PubChem BioAssay (NCI)
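All cell lines were grown in 96-well plates and treated with compound for 48 hours. Abbreviation: GI50, concentration required for 50% inhibition of growth. TGI: total growth inhibition.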

Experiments:
Assay in all cases: growth of human tumour cells (NCI), 48 h
786-0 renal = test system: 786-0 renal
A498 renal = test system: A498 renal
A549 NSCLC = test system: A549 NSCLC
ACHN renal = test system: ACHN renal
BT-549 breast = test system: BT-549 breast
CAKI-1 renal = test system: CAKI-1 renal
CCRF-CEM leukemia = test system: CCRF-CEM leukemia
COLO 205 colon = test system: COLO 205 colon
DU-145 prostate = test system: DU-145 prostate
EKVX NSCLC = test system: EKVX NSCLC
HCC-2998 colon = test system: HCC-2998 colon
HCT-116 colon = test system: HCT-116 colon
HCT-15 colon = test system: HCT-15 colon
HL-60(TB) leukemia = test system: HL-60(TB) leukemia
HOP-62 NSCLC = test system: HOP-62 NSCLC
HOP-92 NSCLC = test system: HOP-92 NSCLC
HS 578T breast = test system: HS 578T breast
HT29 colon = test system: HT29 colon
IGROV1 ovarian = test system: IGROV1 ovarian
K-562 leukemia = test system: K-562 leukemia
KM12 colon = test system: KM12 colon
LOX IMVI melanoma = test system: LOX IMVI melanoma
M14 melanoma = test system: M14 melanoma
MALME-3M melanoma = test system: MALME-3M melanoma
MCF7 breast = test system: MCF7 breast
MDA-MB-231 breast = test system: MDA-MB-231 breast
MDA-MB-435 = test system: MDA-MB-435
MOLT-4 leukemia = test system: MOLT-4 leukemia
NCI-H226 lung = test system: NCI-H226 lung
NCI-H23 lung = test system: NCI-H23 lung
NCI-H460 lung = test system: NCI-H460 lung
NCI-H522 lung = test system: NCI-H522 lung
NCI/ADR-RES ovarian = test system: NCI/ADR-RES ovarian
OVCAR-3 ovarian = test system: OVCAR-3 ovarian
OVCAR-4 ovarian = test system: OVCAR-4 ovarian
OVCAR-5 ovarian = test system: OVCAR-5 ovarian
OVCAR-8 ovarian = test system: OVCAR-8 ovarian
PC-3 prostate = test system: PC-3 prostate
RPMI-8226 leukemia = test system: RPMI-8226 leukemia
RXF 393 renal = test system: RXF 393 renal
SF-268 CNS = test system: SF-268 CNS
SF-295 CNS = test system: SF-295 CNS
SF-539 CNS = test system: SF-539 CNS
SK-MEL-2 melanoma = test system: SK-MEL-2 melanoma
SK-MEL-28 melanoma = test system: SK-MEL-28 melanoma
SK-MEL-5 melanoma = test system: SK-MEL-5 melanoma
SK-OV-3 ovarian = test system: SK-OV-3 ovarian
SN12C renal = test system: SN12C renal
SNB-19 CNS = test system: SNB-19 CNS
SNB-75 CNS = test system: SNB-75 CNS
SR leukemia = test system: SR leukemia
SW-620 colon = test system: SW-620 colon
T-47D breast = test system: T-47D breast
TK-10 renal = test system: TK-10 renal
U251 CNS = test system: U251 CNS
UACC-257 melanoma = test system: UACC-257 melanoma
UACC-62 melanoma = test system: UACC-62 melanoma
UO-31 renal = test system: UO-31 renal

For `C[C@@H](CO)NC(=O)c1cc(-c2ccc(Cl)cc2)nn(-c2cnn(C)c2)c1=O`, the GI50 (786-0 renal) was 23.9 µM, the TGI (786-0 renal) was greater than 100 µM and the GI50 (A498 renal) was 3.01 µM. For the same molecule, the TGI (A498 renal) was 62.3 µM, the GI50 (A549 NSCLC) was 20.3 µM and the TGI (A549 NSCLC) was 67.7 µM. The GI50 (ACHN renal) was 15.4 µM, the TGI (ACHN renal) was 67.2 µM and the GI50 (BT-549 breast) was 23.7 µM. It also gave a TGI (BT-549 breast) of 86.9 µM, a GI50 (CAKI-1 renal) of 10.4 µM and a TGI (CAKI-1 renal) greater than 100 µM. For the same molecule, the GI50 (CCRF-CEM leukemia) was 22.1 µM, the TGI (CCRF-CEM leukemia) was greater than 100 µM and the GI50 (COLO 205 colon) was 24.7 µM. It also gave a TGI (COLO 205 colon) of 90.6 µM, a GI50 (DU-145 prostate) of 29.6 µM and a TGI (DU-145 prostate) greater than 100 µM. It also gave a GI50 (EKVX NSCLC) of 26 µM, a TGI (EKVX NSCLC) greater than 100 µM and a GI50 (HCC-2998 colon) of 23.1 µM. For the same molecule, the TGI (HCC-2998 colon) was greater than 100 µM, the GI50 (HCT-116 colon) was 19.1 µM and the TGI (HCT-116 colon) was greater than 100 µM. The GI50 (HCT-15 colon) was 17.2 µM, the TGI (HCT-15 colon) was greater than 100 µM and the GI50 (HL-60(TB) leukemia) was 13.9 µM. The TGI (HL-60(TB) leukemia) was 42.3 µM, the GI50 (HOP-62 NSCLC) was 41.8 µM and the TGI (HOP-62 NSCLC) was greater than 100 µM. It also gave a GI50 (HOP-92 NSCLC) of 16.6 µM, a TGI (HOP-92 NSCLC) greater than 100 µM and a GI50 (HS 578T breast) of 24.8 µM. It also gave a TGI (HS 578T breast) greater than 100 µM, a GI50 (HT29 colon) of 19.4 µM and a TGI (HT29 colon) of 76.7 µM. The GI50 (IGROV1 ovarian) was 20.2 µM, the TGI (IGROV1 ovarian) was 82.1 µM and the GI50 (K-562 leukemia) was 26.3 µM. It also gave a TGI (K-562 leukemia) of 95 µM, a GI50 (KM12 colon) of 59.9 µM and a TGI (KM12 colon) greater than 100 µM. The GI50 (LOX IMVI melanoma) was 14.6 µM, the TGI (LOX IMVI melanoma) was 37.2 µM and the GI50 (M14 melanoma) was 31.1 µM. It also gave a TGI (M14 melanoma) greater than 100 µM, a GI50 (MALME-3M melanoma) of 17.8 µM and a TGI (MALME-3M melanoma) of 45 µM. It also gave a GI50 (MCF7 breast) of 25.7 µM, a TGI (MCF7 breast) greater than 100 µM and a GI50 (MDA-MB-231 breast) of 51.5 µM. It also gave a TGI (MDA-MB-231 breast) greater than 100 µM, a GI50 (MDA-MB-435) of 50.3 µM and a TGI (MDA-MB-435) greater than 100 µM. The GI50 (MOLT-4 leukemia) was 15.9 µM, the TGI (MOLT-4 leukemia) was 91.5 µM and the GI50 (NCI-H226 lung) was 16.4 µM. For the same molecule, the TGI (NCI-H226 lung) was 35.1 µM, the GI50 (NCI-H23 lung) was 27.9 µM and the TGI (NCI-H23 lung) was greater than 100 µM. The GI50 (NCI-H460 lung) was 30 µM, the TGI (NCI-H460 lung) was greater than 100 µM and the GI50 (NCI-H522 lung) was 14.4 µM. For the same molecule, the TGI (NCI-H522 lung) was 35.7 µM, the GI50 (NCI/ADR-RES ovarian) was 16.7 µM and the TGI (NCI/ADR-RES ovarian) was 71.9 µM. The GI50 (OVCAR-3 ovarian) was 45.5 µM, the TGI (OVCAR-3 ovarian) was greater than 100 µM and the GI50 (OVCAR-4 ovarian) was 45.9 µM. It also gave a TGI (OVCAR-4 ovarian) greater than 100 µM, a GI50 (OVCAR-5 ovarian) of 28.7 µM and a TGI (OVCAR-5 ovarian) greater than 100 µM. The GI50 (OVCAR-8 ovarian) was 26.3 µM, the TGI (OVCAR-8 ovarian) was greater than 100 µM and the GI50 (PC-3 prostate) was 27.8 µM. It also gave a TGI (PC-3 prostate) greater than 100 µM, a GI50 (RPMI-8226 leukemia) of 20.5 µM and a TGI (RPMI-8226 leukemia) greater than 100 µM. The GI50 (RXF 393 renal) was 7.79 µM, the TGI (RXF 393 renal) was 45.8 µM and the GI50 (SF-268 CNS) was 25.6 µM. It also gave a TGI (SF-268 CNS) greater than 100 µM, a GI50 (SF-295 CNS) of 16.4 µM and a TGI (SF-295 CNS) of 50.7 µM. The GI50 (SF-539 CNS) was 16 µM, the TGI (SF-539 CNS) was 48.3 µM and the GI50 (SK-MEL-2 melanoma) was 59.9 µM. It also gave a TGI (SK-MEL-2 melanoma) greater than 100 µM, a GI50 (SK-MEL-28 melanoma) of 28.4 µM and a TGI (SK-MEL-28 melanoma) of 82.1 µM. The GI50 (SK-MEL-5 melanoma) was 12.7 µM, the TGI (SK-MEL-5 melanoma) was 26 µM and the GI50 (SK-OV-3 ovarian) was 82.6 µM. The TGI (SK-OV-3 ovarian) was greater than 100 µM, the GI50 (SN12C renal) was 19.3 µM and the TGI (SN12C renal) was greater than 100 µM. For the same molecule, the GI50 (SNB-19 CNS) was 26.4 µM, the TGI (SNB-19 CNS) was greater than 100 µM and the GI50 (SNB-75 CNS) was 16.7 µM. The TGI (SNB-75 CNS) was 78.1 µM, the GI50 (SR leukemia) was 18.2 µM and the TGI (SR leukemia) was greater than 100 µM. It also gave a GI50 (SW-620 colon) of 22.9 µM, a TGI (SW-620 colon) greater than 100 µM and a GI50 (T-47D breast) of 25.9 µM. The TGI (T-47D breast) was greater than 100 µM, the GI50 (TK-10 renal) was 3.12 µM and the TGI (TK-10 renal) was 47 µM. It also gave a GI50 (U251 CNS) of 42.9 µM, a TGI (U251 CNS) greater than 100 µM and a GI50 (UACC-257 melanoma) of 30.6 µM. The TGI (UACC-257 melanoma) was greater than 100 µM, the GI50 (UACC-62 melanoma) was 14.5 µM and the TGI (UACC-62 melanoma) was 31.7 µM. For the same molecule, the GI50 (UO-31 renal) was 7.79 µM and the TGI (UO-31 renal) was 57.4 µM.
